# Assay results reported in paper PMC5218480 (PLoS ONE, 2017).
# System: MV-4-11 cells
# Assay: Gene expression microarray analysis (Affymetrix PrimeView) and GSEA
# Assay type: cell-based, human
# Set-up: RFU PODN (11730768_x_at) / Fold change /veh PODN (11730768_x_at) / RFU LINC00158 (11744669_a_at) / Fold change /veh LINC00158 (11744669_a_at) / RFU DUSP10 (11751237_a_at) / Fold change /veh DUSP10 (11751237_a_at) / RFU ID3 (11757404_x_at) / Fold change /veh ID3 (11757404_x_at) / RFU PLEKHG5 (11737974_s_at) / Fold change /veh PLEKHG5 (11737974_s_at) / RFU LRRC4B (11730491_at) / Fold change /veh LRRC4B (11730491_at) / RFU GIMAP4 (11747438_a_at) / Fold change /veh GIMAP4 (11747438_a_at) / RFU KRT8 (11758183_x_at) / Fold change /veh KRT8 (11758183_x_at) / RFU CNN1 (11734310_a_at) / Fold change /veh CNN1 (11734310_a_at) / RFU VPS37D (11726825_at) / Fold change /veh VPS37D (11726825_at) / RFU C10orf10 (11716522_x_at) / Fold change /veh C10orf10 (11716522_x_at) / RFU KIR2DL2 /// KIR2DL4 /// KIR2DL5A /// KIR2DL5B /// KIR2DS1 /// KIR2DS2 /// KIR2DS3 /// KIR2DS4 /// KIR3DL3 /// KIR3DL3 /// KIR3DS1 (11738374_at) / Fold change /veh KIR2DL2 /// KIR2DL4 /// KIR2DL5A /// KIR2DL5B /// KIR2DS1 /// KIR2DS2 /// KIR2DS3 /// KIR2DS4 /// KIR3DL3 /// KIR3DL3 /// KIR3DS1 (11738374_at) / RFU C1QL1 (11718748_at) / Fold change /veh C1QL1 (11718748_at) / RFU TMPRSS4 (11747572_a_at) / Fold change /veh TMPRSS4 (11747572_a_at) / RFU HAMP (11756126_x_at) / Fold change /veh HAMP (11756126_x_at) / RFU RNFT2 (11725882_a_at) / Fold change /veh RNFT2 (11725882_a_at) / RFU NR4A2 (11747474_a_at) / Fold change /veh NR4A2 (11747474_a_at) / RFU ABCC12 (11746883_a_at) / Fold change /veh ABCC12 (11746883_a_at) / RFU TMEM136 (11760407_x_at) / Fold change /veh TMEM136 (11760407_x_at) / RFU CLDN22 /// WWC2 (11732394_at) / Fold change /veh CLDN22 /// WWC2 (11732394_at) / RFU HLA-DPB1 (11760878_x_at) / Fold change /veh HLA-DPB1 (11760878_x_at) / RFU SPINT1 (11716480_a_at) / Fold change /veh SPINT1 (11716480_a_at) / RFU GAP43 (11754022_s_at) / Fold change /veh GAP43 (11754022_s_at) / RFU A4GNT (11735810_at) / Fold change /veh A4GNT (11735810_at) / RFU PRB3 (11715151_x_at) / Fold change /veh PRB3 (11715151_x_at) / RFU TUBB4B (11761932_at) / Fold change /veh TUBB4B (11761932_at) / RFU CAPN14 (11732068_a_at) / Fold change /veh CAPN14 (11732068_a_at) / RFU TMCC2 (11721928_a_at) / Fold change /veh TMCC2 (11721928_a_at) / RFU IRGQ (11745062_a_at) / Fold change /veh IRGQ (11745062_a_at) / RFU FAM174B (11720279_a_at) / Fold change /veh FAM174B (11720279_a_at) / RFU TMPRSS4 (11748680_a_at) / Fold change /veh TMPRSS4 (11748680_a_at) / RFU FAM212B (11763350_a_at) / Fold change /veh FAM212B (11763350_a_at) / RFU PLEKHG5 (11743358_a_at) / Fold change /veh PLEKHG5 (11743358_a_at) / RFU ZSCAN30 (11745921_a_at) / Fold change /veh ZSCAN30 (11745921_a_at) / RFU CMKLR1 (11741424_a_at) / Fold change /veh CMKLR1 (11741424_a_at) / RFU LOC101060620 /// MAPK8IP1 (11723275_at) / Fold change /veh LOC101060620 /// MAPK8IP1 (11723275_at) / RFU SPTSSB (11747773_x_at) / Fold change /veh SPTSSB (11747773_x_at) / RFU PRSS12 (11739890_at) / Fold change /veh PRSS12 (11739890_at) / RFU BIN1 (11741810_x_at) / Fold change /veh BIN1 (11741810_x_at) / RFU WNT11 (11732464_a_at) / Fold change /veh WNT11 (11732464_a_at) / RFU C10orf10 (11716521_a_at) / Fold change /veh C10orf10 (11716521_a_at) / RFU C5orf56 (11738089_at) / Fold change /veh C5orf56 (11738089_at) / RFU CYB561 (11721691_x_at) / Fold change /veh CYB561 (11721691_x_at) / RFU ANKRD19P (11752326_a_at) / Fold change /veh ANKRD19P (11752326_a_at) / RFU OR2T12 /// OR2T33 /// OR2T8 (11738714_s_at) / Fold change /veh OR2T12 /// OR2T33 /// OR2T8 (11738714_s_at) / RFU VCAN (11748164_a_at) / Fold change /veh VCAN (11748164_a_at) / RFU JSRP1 (11732532_at) / Fold change /veh JSRP1 (11732532_at) / RFU KRTAP10-11 (11738290_x_at) / Fold change /veh KRTAP10-11 (11738290_x_at) / RFU MYO3A (11730013_a_at) / Fold change /veh MYO3A (11730013_a_at) / RFU EBF3 (11725865_a_at) / Fold change /veh EBF3 (11725865_a_at) / RFU CAMK2N1 (11719241_x_at) / Fold change /veh CAMK2N1 (11719241_x_at) / RFU C5orf56 (11738088_a_at) / Fold change /veh C5orf56 (11738088_a_at) / RFU OLFML3 (11715873_a_at) / Fold change /veh OLFML3 (11715873_a_at) / RFU LOC100653217 /// NTM (11731650_a_at) / Fold change /veh LOC100653217 /// NTM (11731650_a_at) / RFU MAPK11 (11762145_a_at) / Fold change /veh MAPK11 (11762145_a_at) / RFU FIZ1 (11724087_x_at) / Fold change /veh FIZ1 (11724087_x_at) / RFU OASL (11726364_x_at) / Fold change /veh OASL (11726364_x_at) / RFU SOX15 (11748057_x_at) / Fold change /veh SOX15 (11748057_x_at) / RFU CD79A (11719716_a_at) / Fold change /veh CD79A (11719716_a_at) / RFU HIST1H1D (11736915_at) / Fold change /veh HIST1H1D (11736915_at) / RFU CASKIN2 (11723855_a_at) / Fold change /veh CASKIN2 (11723855_a_at) / RFU LOC730098 (11760151_x_at) / Fold change /veh LOC730098 (11760151_x_at) / RFU OR4N2 (11742367_at) / Fold change /veh OR4N2 (11742367_at) / RFU PRRT2 (11749266_a_at) / Fold change /veh PRRT2 (11749266_a_at) / RFU SNX32 (11753110_a_at) / Fold change /veh SNX32 (11753110_a_at) / RFU CDHR5 (11726645_a_at) / Fold change /veh CDHR5 (11726645_a_at) / RFU RCAN1 (11760418_a_at) / Fold change /veh RCAN1 (11760418_a_at) / RFU FAM167A (11723789_a_at) / Fold change /veh FAM167A (11723789_a_at) / RFU FAM26E (11764081_at) / Fold change /veh FAM26E (11764081_at) / RFU ISYNA1 (11749810_s_at) / Fold change /veh ISYNA1 (11749810_s_at) / RFU ACY1 (11761880_at) / Fold change /veh ACY1 (11761880_at) / RFU 11764098_at / Fold change /veh 11764098_at / RFU SAMD14 (11745864_x_at) / Fold change /veh SAMD14 (11745864_x_at) / RFU NPB (11741838_a_at) / Fold change /veh NPB (11741838_a_at) / RFU TMPRSS6 (11731388_a_at) / Fold change /veh TMPRSS6 (11731388_a_at) / RFU KRTAP10-2 (11738614_at) / Fold change /veh KRTAP10-2 (11738614_at) / RFU ARHGAP8 /// PRR5-ARHGAP8 (11727945_x_at) / Fold change /veh ARHGAP8 /// PRR5-ARHGAP8 (11727945_x_at) / RFU KRTAP5-7 /// NADSYN1 (11734609_at) / Fold change /veh KRTAP5-7 /// NADSYN1 (11734609_at) / RFU RASL12 (11751679_a_at) / Fold change /veh RASL12 (11751679_a_at) / RFU CDKN2B (11736163_a_at) / Fold change /veh CDKN2B (11736163_a_at) / RFU PRF1 (11729649_at) / Fold change /veh PRF1 (11729649_at) / RFU, ZNF638 /// ZNF638-IT1 / Fold change vs veh, ZNF638 /// ZNF638-IT1 / RFU, PANK3 / Fold change vs veh, PANK3 / RFU, SH3YL1 / Fold change vs veh, SH3YL1 / RFU, ZEB2 / Fold change vs veh, ZEB2 / RFU, NRIP1 / Fold change vs veh, NRIP1 / RFU, PTTG1IP / Fold change vs veh, PTTG1IP / RFU, CAPN2 / Fold change vs veh, CAPN2 / RFU, MED14 / Fold change vs veh, MED14 / RFU, SNORA58 / Fold change vs veh, SNORA58 / RFU, C1orf63 / Fold change vs veh, C1orf63 / RFU, LRRFIP1 / Fold change vs veh, LRRFIP1 / RFU, NDUFAF7 / Fold change vs veh, NDUFAF7 / RFU, SLC12A2 / Fold change vs veh, SLC12A2 / RFU, IBTK / Fold change vs veh, IBTK / RFU, ESF1 / Fold change vs veh, ESF1 / Fold change vs veh, TMEM50B / RFU, TAOK1 / Fold change vs veh, TAOK1 / RFU, ACBD3 / Fold change vs veh, ACBD3 / RFU, TMA16 / Fold change vs veh, TMA16 / RFU, RWDD3 / Fold change vs veh, RWDD3 / RFU, BCAT1 / Fold change vs veh, BCAT1 / RFU, EDEM3 / Fold change vs veh, EDEM3 / RFU, TMEM33 / Fold change vs veh, TMEM33 / RFU, WDR75 / Fold change vs veh, WDR75 / RFU, AHCTF1 / Fold change vs veh, AHCTF1 / RFU, TFRC / Fold change vs veh, TFRC / RFU, ZDHHC17 / Fold change vs veh, ZDHHC17 / RFU, NOM1 / Fold change vs veh, NOM1 / RFU, ARL8B / Fold change vs veh, ARL8B / RFU, ZBTB11 / Fold change vs veh, ZBTB11 / RFU, TAMM41 / Fold change vs veh, TAMM41 / RFU, KIAA1704 /// LOC100996395 / Fold change vs veh, KIAA1704 /// LOC100996395 / RFU, ING1 / Fold change vs veh, ING1 / RFU, TRMT61B / Fold change vs veh, TRMT61B / RFU, FUBP3 / Fold change vs veh, FUBP3 / RFU, TP53 / Fold change vs veh, TP53 / RFU, TNKS2 / Fold change vs veh, TNKS2 / RFU, ZFP14 / Fold change vs veh, ZFP14 / RFU, ACTR2 / Fold change vs veh, ACTR2 / RFU, PPP3R1 / Fold change vs veh, PPP3R1 / RFU, PIK3R1 / Fold change vs veh, PIK3R1 / RFU, HNRNPA1 / Fold change vs veh, HNRNPA1 / RFU, RNF170 / Fold change vs veh, RNF170 / RFU, ZNF28 / Fold change vs veh, ZNF28 / RFU, RNGTT / Fold change vs veh, RNGTT / RFU, OGT / Fold change vs veh, OGT / RFU, BRD1 / Fold change vs veh, BRD1 / RFU, MARS / Fold change vs veh, MARS / RFU, ZNF655 / Fold change vs veh, ZNF655 / RFU, FAHD1 / Fold change vs veh, FAHD1 / RFU, BDP1 / Fold change vs veh, BDP1 / RFU, LRRCC1 / Fold change vs veh, LRRCC1 / RFU, ARID1A / Fold change vs veh, ARID1A / RFU, ZNF146 / Fold change vs veh, ZNF146 / RFU, ZNF330 / Fold change vs veh, ZNF330 / RFU, GPN3 / Fold change vs veh, GPN3 / RFU, C9orf123 / Fold change vs veh, C9orf123 / RFU, N4BP2L2 / Fold change vs veh, N4BP2L2 / RFU, ARFIP1 / Fold change vs veh, ARFIP1 / RFU, FAM179B / Fold change vs veh, FAM179B / RFU, BCL10 / Fold change vs veh, BCL10 / RFU, UHRF1BP1L / Fold change vs veh, UHRF1BP1L / RFU, BET1 / Fold change vs veh, BET1 / RFU, CNOT2 / Fold change vs veh, CNOT2 / RFU, ZNF268 / Fold change vs veh, ZNF268 / Fold change vs veh, ZNF507 / RFU, DGCR2 / Fold change vs veh, DGCR2 / RFU, WDSUB1 / Fold change vs veh, WDSUB1 / Fold change vs veh, HSP90B1 /// MIR3652 / RFU, ADSS / Fold change vs veh, ADSS / RFU, GK / Fold change vs veh, GK / RFU, ZNF148 / Fold change vs veh, ZNF148 / RFU, TAF9 / Fold change vs veh, TAF9 / RFU, SLC1A5 / Fold change vs veh, SLC1A5 / RFU, SLMO2 / Fold change vs veh, SLMO2 / RFU, ABCC4 / Fold change vs veh, ABCC4 / RFU, LOC101060439 /// RAP1B / Fold change vs veh, LOC101060439 /// RAP1B / RFU, RFX7 / Fold change vs veh, RFX7 / RFU, GTPBP10 / Fold change vs veh, GTPBP10 / RFU, CNEP1R1 / Fold change vs veh, CNEP1R1 / RFU, BIVM-ERCC5 /// ERCC5 / Fold change vs veh, BIVM-ERCC5 /// ERCC5 / RFU, ILF3 / Fold change vs veh, ILF3 / RFU 11762660_at / Fold change /veh 11762660_at / RFU VCAN (11757783_s_at) / Fold change /veh VCAN (11757783_s_at) / RFU DDX43 (11728927_at) / Fold change /veh DDX43 (11728927_at) / RFU KRT8 (11758188_x_at) / Fold change /veh KRT8 (11758188_x_at) / RFU NKD1 (11759106_at) / Fold change /veh NKD1 (11759106_at) / RFU SRD5A1 (11742802_a_at) / Fold change /veh SRD5A1 (11742802_a_at) / RFU TPSAB1 /// TPSB2 (11721975_s_at) / Fold change /veh TPSAB1 /// TPSB2 (11721975_s_at) / RFU GSTM3 (11746129_a_at) / Fold change /veh GSTM3 (11746129_a_at) / RFU IL23R (11737362_x_at) / Fold change /veh IL23R (11737362_x_at) / RFU TMEM51 (11727254_a_at) / Fold change /veh TMEM51 (11727254_a_at) / RFU PIWIL2 (11732686_x_at) / Fold change /veh PIWIL2 (11732686_x_at) / RFU ORM1 (11744905_x_at) / Fold change /veh ORM1 (11744905_x_at) / RFU CCDC152 (11743942_at) / Fold change /veh CCDC152 (11743942_at) / RFU ECM1 (11717891_a_at) / Fold change /veh ECM1 (11717891_a_at) / RFU IL23R (11748794_a_at) / Fold change /veh IL23R (11748794_a_at) / RFU TNFAIP8L3 (11732012_x_at) / Fold change /veh TNFAIP8L3 (11732012_x_at) / RFU MBOAT4 (11741988_at) / Fold change /veh MBOAT4 (11741988_at) / RFU 11764193_at / Fold change /veh 11764193_at / RFU TMEM53 (11763286_at) / Fold change /veh TMEM53 (11763286_at) / RFU MAGEB2 (11727129_at) / Fold change /veh MAGEB2 (11727129_at) / RFU TMEM200A (11744735_a_at) / Fold change /veh TMEM200A (11744735_a_at) / RFU CCDC152 (11751479_a_at) / Fold change /veh CCDC152 (11751479_a_at) / RFU FAM211A (11726209_a_at) / Fold change /veh FAM211A (11726209_a_at) / RFU RGS16 (11746705_a_at) / Fold change /veh RGS16 (11746705_a_at) / RFU VCAN (11755009_s_at) / Fold change /veh VCAN (11755009_s_at) / RFU RHOB (11743442_s_at) / Fold change /veh RHOB (11743442_s_at) / RFU RGS16 (11720943_a_at) / Fold change /veh RGS16 (11720943_a_at) / RFU RGS16 (11720944_at) / Fold change /veh RGS16 (11720944_at) / RFU, VPS4B / Fold change vs veh, VPS4B / RFU, CREB1 / Fold change vs veh, CREB1 / RFU, DNAJC13 / Fold change vs veh, DNAJC13 / RFU, GNAQ / Fold change vs veh, GNAQ / RFU, CDK5R1 / Fold change vs veh, CDK5R1 / RFU, ZRANB3 / Fold change vs veh, ZRANB3 / RFU, CUL4A / Fold change vs veh, CUL4A / RFU, CCNY / Fold change vs veh, CCNY / RFU, UFL1 / Fold change vs veh, UFL1 / RFU, COG3 / Fold change vs veh, COG3 / RFU, DIAPH2 / Fold change vs veh, DIAPH2 / RFU, SKA2 / Fold change vs veh, SKA2 / RFU, AFF3 / Fold change vs veh, AFF3 / RFU, LMF1 / Fold change vs veh, LMF1 / RFU, IPO11 / Fold change vs veh, IPO11 / RFU, DFFB / Fold change vs veh, DFFB / RFU, FOXP1 / Fold change vs veh, FOXP1 / RFU, CARD8 / Fold change vs veh, CARD8 / RFU, STRN3 / Fold change vs veh, STRN3 / RFU, ADK / Fold change vs veh, ADK / RFU, RASSF2 / Fold change vs veh, RASSF2 / RFU, WIPF1 / Fold change vs veh, WIPF1 / RFU, LARP1B / Fold change vs veh, LARP1B / RFU, RASA1 / Fold change vs veh, RASA1 / RFU, RB1 / Fold change vs veh, RB1 / RFU, PPFIA1 / Fold change vs veh, PPFIA1 / RFU, MAT2A / Fold change vs veh, MAT2A / RFU, CCT5 / Fold change vs veh, CCT5 / RFU, WDR92 / Fold change vs veh, WDR92 / RFU, CUX1 / Fold change vs veh, CUX1 / RFU, TTC7A / Fold change vs veh, TTC7A / RFU, TMEM135 / Fold change vs veh, TMEM135 / RFU, DEPTOR / Fold change vs veh, DEPTOR / RFU, CPM / Fold change vs veh, CPM / RFU, DNAJB6 / Fold change vs veh, DNAJB6 / RFU, CACNA2D3 / Fold change vs veh, CACNA2D3 / RFU, DTX4 / Fold change vs veh, DTX4 / RFU, TFCP2 / Fold change vs veh, TFCP2 / RFU, GMCL1 /// GMCL1P1 / Fold change vs veh, GMCL1 /// GMCL1P1 / RFU, AEBP2 / Fold change vs veh, AEBP2 / RFU, SNHG1 /// SNORD22 /// SNORD25 /// SNORD26 /// SNORD27 /// SNORD28 /// SNORD29 /// SNORD31 / Fold change vs veh, SNHG1 /// SNORD22 /// SNORD25 /// SNORD26 /// SNORD27 /// SNORD28 /// SNORD29 /// SNORD31 / Fold change (Aza/veh), C12orf56 (ProbeSet 11735607_a_at) / Fold change (ACY-1035/veh), C12orf56 (ProbeSet 11735607_a_at) / Fold change (Aza/veh), FGFR1OP (ProbeSet 11751329_s_at) / Fold change (ACY-1035/veh), FGFR1OP (ProbeSet 11751329_s_at) / Fold change (Aza/veh), VPS36 (ProbeSet 11739960_a_at) / Fold change (ACY-1035/veh), VPS36 (ProbeSet 11739960_a_at) / RFU SYPL1 (11715823_x_at) / Fold change /veh SYPL1 (11715823_x_at) / RFU IGFBP7 (11715501_s_at) / Fold change /veh IGFBP7 (11715501_s_at) / RFU REEP3 (11722064_at) / Fold change /veh REEP3 (11722064_at) / RFU IGLL1 (11728026_x_at) / Fold change /veh IGLL1 (11728026_x_at): dose or concentration left out as unconfirmed
# Conditions: ProbeSet 11732306_x_at; LIST D
smiles,measurement,value
Nc1ccc(-c2cccs2)cc1NC(=O)c1ccc2c(c1)cc(C1CC1)n2CCN1CCOCC1 [ACY-1035],"RFU, CREB1",287.35 RFU
